Reference: ChEMBL document CHEMBL1157539, “Thousands of chemical starting points for antimalarial lead identification” (Nature, 2010)

Each compound was assayed on Plasmodium falciparum (assay: GSK_TCMDC: Inhibition of Plasmodium falciparum 3D7 in whole erythrocytes, using parasite LDH activity as an index of growth.). Settings: Plasmodium falciparum, 3D7.
Assay type: functional, organism-based

In order of falling XC50:
1. CCOC(=O)N1CCN(C(=O)Nc2ccc(Cl)cc2)CC1  1520 nM
2. CS(=O)(=O)N(c1ccc(F)cc1)c1cc(C(=O)N[C@@H](Cc2ccccc2)[C@H](O)CNCc2cccc(C(F)(F)F)c2)cc(N2CCCC2=O)c1  1350 nM
3. c1cc(CNCC2CCCO2)cc(-c2ccc(-c3nc4ccccc4[nH]3)s2)c1 (configuration not stated)  1170 nM
4. CC(C)(C)c1ccc(CN2CCC(CNC(=O)c3cc(-c4cccc(Cl)c4)cs3)C2)cc1 (configuration not stated)  1160 nM
5. O=C(Cc1cccs1)NCC(c1ccccc1Cl)c1c[nH]c2ccccc12 (configuration not stated)  1150 nM
6. Cc1cccc2nc(-c3ccc(-c4cccc(C(=O)NCCN5CCCC5)c4)s3)[nH]c12  1140 nM
7. O=S(=O)(Nc1ccc(CCN2CCC(N3CCCCC3)CC2)cc1)c1ccc(Cl)cc1  1090 nM
8. COc1ccc2ncc(F)c(NC(=O)C3CCC(NCc4cc5cc(F)cc(F)c5[nH]4)CC3)c2n1 (configuration not stated)  1090 nM
9. OC1CCN(c2cc(-c3ccccn3)nc(-c3ccccn3)n2)CC1  1050 nM
10. COc1ccc(O)c(C(=O)NCCc2ccc(OC)c(-c3ccc(C(C)(C)C)cc3)c2)c1  1030 nM
11. Oc1ccc(CCNc2nc(NCc3ccc4cc(Cl)ccc4c3)nc(N3CCNCC3)n2)cc1  1020 nM
12. COCCOc1ccc(C(F)(F)F)cc1NC(=O)Cc1c(F)cccc1Cl  1000 nM
13. COCn1ccc2c3c(N)nc(N)nc3ccc21  990 nM
14. CC(C)COc1ccc(Cl)cc1Cc1ccc(-c2nc3cc(CCN(C)C)ccc3[nH]2)o1  982 nM
15. COc1ccc2nccc(N3CCC(SCCNS(=O)(=O)c4ccc5c(c4)OCCO5)C3)c2n1 (configuration not stated)  981 nM
16. CCn1c(-c2nonc2N)nc2c(C#CC(C)(C)O)ncc(OCCNCCc3ccc(OC)cc3)c21  957 nM
17. CN(C)CCC1CCN(CCS(=O)(=O)c2cccc(Nc3ccc(-c4ccsc4)cn3)c2)CC1  938 nM
18. Cc1cccc(NC(=O)c2ccc(C(=O)NC3CCN(CC4CCCCC4)C3)cc2)c1 (configuration not stated)  923 nM
19. CCOc1ccc(-c2cc3nc(C4CCNCC4)c(C(=O)Nc4ccc(C)cc4Cl)cn3n2)cc1  919 nM
20. COc1ccc2[nH]c(C(=O)Nc3cccc(-c4ccc(CN(C)C)cc4)c3)cc2c1  908 nM
21. CCCCCCNC(=O)C1Cc2c([nH]c3cc(Cl)ccc23)C2(CCN(Cc3ccccc3)CC2)N1 (configuration not stated)  903 nM
22. CCN(CC)c1ccc(NC(=S)NC2CCN(CCCCCNC(=O)/C=C/c3ccc(Cl)c(Cl)c3)CC2)cc1  883 nM
23. Cc1cccc2nc(-c3ccc(-c4cccc(C(=O)NCCc5cn(C)cn5)c4)s3)[nH]c12  877 nM
24. Cc1cc(O)c(-c2ccc(S(=O)(=O)c3ccc(Cl)cc3)cc2)c(C)n1  877 nM
25. Cc1ccc(C[C@@H](C)NC[C@H](O)c2cccc(C(F)(F)F)c2)cc1  876 nM
26. CN(CC1CCC(NC(=O)/C=C/c2ccc(Cl)c(Cl)c2)CC1)C1CCC(c2c[nH]c3ccccc23)CC1 (configuration not stated)  837 nM
27. CN(C)CCOc1ccc(N2CCN(CCCCNC(=O)c3ccc(NC(=O)c4ccc(Cl)cc4)cc3)CC2)cc1  826 nM
28. FC(F)(F)c1ccc2[nH]ccc(=NN=Cc3cccc(Cl)c3)c2c1  825 nM
29. COc1ccc2ncc(F)c(CCN3CC(O)C(CNCc4ccc(F)cc4)C3)c2n1 (configuration not stated)  821 nM
30. CN1CCN(S(=O)(=O)c2ccc3nccc(Nc4ccc(Oc5ccccc5)cc4)c3c2)CC1  818 nM
31. CC(C)C1C(O)=C(c2ccc3ccccc3c2)C(=O)N1Cc1cccc(F)c1 (configuration not stated)  812 nM
32. COc1ccc(C(=O)Nc2ccc(-c3ccc([N+](=O)[O-])cc3)cc2)cc1CCCN(C)C  803 nM
33. FC(F)(F)c1cccc(Nc2nc(-c3ccccc3)nc3ncccc23)c1  802 nM
34. O=C(/C=C/c1ccc(Cl)c(Cl)c1)N1CCC(CN2CCC(c3c[nH]c4cc(C(F)(F)F)ccc34)CC2)CC1  796 nM
35. O=c1c(Br)ccccc1Br  795 nM
36. O=C(Nc1ccc(OC2CCN(Cc3ccc(F)cc3)CC2)c(Cl)c1)c1ccccc1  794 nM
37. CC(C)Cn1cc(C2CCN(CCN3CCC(CNC(=O)c4ccc(-c5ccc(C#N)cc5)cc4)CC3)CC2)c2ccccc21  786 nM
38. CC1CCN(Cc2ccc(NC(=O)c3cc4ccc5cccnc5c4[nH]3)cc2)CC1  779 nM
39. Oc1cccc(CCNCCCCCCNCCc2ccc(Cl)cc2)c1  774 nM
40. COc1cc(C(=O)NCc2nn(CCN3CCC(N4CCCC4)CC3)cc2-c2ccc(Cl)c(Cl)c2)cc(OC)c1OC  774 nM
41. CCn1c(-c2ccccc2)cc2nnc3ccccc3c21  769 nM
42. Fc1cccc(Nc2nc(NCc3ccc(Cl)c(Cl)c3)nc(Nc3cccc(F)c3)n2)c1  748 nM
43. CCOC(=O)NCC(=O)Nc1cccc(-c2cccc(-c3nc4cccc(C)c4[nH]3)c2)c1  740 nM
44. CN1CCN(c2ccc(-c3cc(-c4ccncc4)c(-c4ccc(Cl)c(O)c4)o3)cc2)CC1  737 nM
45. CCOc1c(OC)ccc2c1CCN(CCN1CCC(NC(=O)c3ccc(-c4cccc(C(F)(F)F)c4C(F)(F)F)cc3)CC1)C2  728 nM
46. CNC(=O)c1ccccc1Nc1nc(Nc2ccc(N3CCOCC3)cc2)ncc1Cl  727 nM
47. COc1ccc(Nc2ncc3c(-c4cccc(NC(=O)Cc5cccnc5)c4)c[nH]c3n2)cc1OC  718 nM
48. Cc1cc(N2CCCCC2)nc2ccc(NC(=O)c3cc(=O)c4ccccc4o3)cc12  716 nM
49. O=C1OC2(CCN(C(=O)c3ccc(-n4cnnn4)cc3)CC2)CN1Cc1ccc(Cl)c(Cl)c1  715 nM
50. N#Cc1cccc(C(=O)Nc2cccc(-c3ccc(C(=O)Nc4cccnc4)cc3)c2)c1  693 nM
51. Cc1ccccc1Cc1cccc(/N=C(\N)Nc2ccc(Cl)cc2)n1  676 nM
52. CCC(=O)N(c1ccccc1)C1CCN(CCCC(NC(=O)Nc2cc(C(F)(F)F)cc(C(F)(F)F)c2)c2ccc(Cl)c(Cl)c2)CC1 (configuration not stated)  672 nM
53. Cc1ccccc1C1CCN(C2CCC(NC(=O)c3ccc(-c4ccccc4)s3)CC2)CC1 (configuration not stated)  661 nM
54. COc1ccc2cc(C=NNc3nc4ccccc4[nH]3)c(Cl)nc2c1  653 nM
55. COCCn1c(SC(C)C(=O)Nc2cc(C(F)(F)F)ccc2Cl)nc2ccccc2c1=O (configuration not stated)  629 nM
56. Cc1cc(N2CCCC2)nc(Nc2ccc(NC(=O)c3ccc(Br)o3)cc2)n1  623 nM
57. O=C(N[C@H]1CCN(Cc2ccc(OCCCN3CCCCC3)cc2)C1)c1cc(Cl)cc(Cl)c1  621 nM
58. CCc1c(CCNCCCCCCNCCc2ccc3c(c2C)OCO3)ccc2c1OCO2  608 nM
59. N=C(N)Nc1nc(CCCCCCCCc2csc(NC(=N)N)n2)cs1  598 nM
60. COc1ccc2ncc(Cl)c(NCC3(O)CCC(NCc4ccc5c(n4)NC(=O)CS5)CC3)c2n1 (configuration not stated)  597 nM
61. COc1cc2nc(N3CCC(CNC(=O)/C=C/c4ccccc4F)CC3)nc(N)c2cc1OC  581 nM
62. CCn1cnc2c(N3CCCC3=O)cc(C(=O)N[C@@H](Cc3ccccc3)[C@H](O)CNC3CCCCC3)cc21  574 nM
63. CCN(CC)CCCN(CCCN(CC)CC)c1cc(C)nc(Nc2ccc3cc(Br)ccc3c2)n1  567 nM
64. Cc1cc(NC(=O)Nc2ccc(C#N)cc2)c2ccccc2n1  567 nM
65. CC(C)(C)c1ccc(CN2CCC(CNC(=O)c3cc(-c4ccccc4F)cs3)C2)cc1 (configuration not stated)  564 nM
66. Cc1cc(NC(=O)Nc2ccc(Cl)cc2F)c2ccccc2n1  547 nM
67. O=C(Nc1ccccc1)N(Cc1ccc(-c2cccc(CNC3CCCC3)c2)cc1)C1CCN(Cc2ccccc2)CC1  427 nM
68. CCN(CC1CCN(CC2(O)CCOCC2)CC1)c1cc(C)nc(Nc2ccc(Cl)cc2)n1  406 nM
69. O=C(Nc1cccc(-c2nn3ccccc3c2-c2ccnc(Nc3ccc(C(=O)N4CCOCC4)cc3)n2)c1)c1c(F)cccc1F  383 nM
70. N=C(N)NN=Cc1ccc2ccc3ccccc3c2c1  376 nM
71. CN1CCN(CC(=O)Nc2cccc(-c3ccc(-c4nc5cc(C(F)(F)F)ccc5[nH]4)s3)c2)CC1  309 nM
72. COc1ccc2nccc([C@@H](O)CN3CCC(NC(=O)/C=C/c4ccc(Cl)c(C(F)(F)F)c4)CC3)c2c1  290 nM
73. CSc1ccc(C=CC(=O)NC(=O)c2ccccc2O)cc1  289 nM
74. Cc1cccc2nc(-c3cccc(-c4cccc(NC(=O)c5c[nH]cn5)c4)c3)[nH]c12  258 nM
75. CC(C)N(Cc1ccccc1)C(=O)CN1C(=O)COc2ccc(S(=O)(=O)N3CCCCCC3)cc21  253 nM
76. O=[N+]([O-])c1cccc(CNCC2CCN(Cc3ccc(C(F)(F)F)cc3)CC2)c1  245 nM
77. CCN1CCC(N(Cc2ccc(-c3ccc(C(F)(F)F)cc3)cc2)C(=O)Cn2c(CCc3cccc(F)c3F)cc(=O)c3cn(C)nc32)CC1  240 nM
78. CC(=O)Nc1ccc(C(=O)Nc2ccc(-c3cccc(-c4nc5ccccc5[nH]4)c3)cc2)cn1  238 nM
79. Cc1nc(N)nc(N)c1OCCCCCCOc1ccccc1  235 nM
80. CCN(CC)CCOc1ccc(NC(=O)c2oc3ccccc3c2C=Cc2ccccc2)cc1  223 nM
81. CC[C@H]1CN2CC[C@@H]1C[C@H]2[C@H](O)c1cc(N2CCSCC2)nc2ccc(OC)cc12  199 nM
82. N=C(N)Nc1ccc(OCCCCCOc2ccc(NC(=N)N)cc2)cc1  193 nM
83. Oc1ccc(Nc2nc(NCc3ccccc3)c3ccccc3n2)cc1  192 nM
84. COC(=O)c1cccc(CNCc2cccc(-c3cccc(-c4nc5cccc(C)c5[nH]4)c3)c2)c1  186 nM
85. CC(C)C[C@H](NC(=O)c1cc(-c2ccc(C(C)(C)C)cc2)no1)C(=O)O.CC(C)C[C@H](NC(=O)c1conc1-c1ccc(C(C)(C)C)cc1)C(=O)O  186 nM
86. CCc1sc(N2CCN(C)CC2)nc1C(=O)Nc1ccc(F)cc1C(F)(F)F  178 nM
87. COc1cc(NC(=O)/C=C/c2ccccc2Cl)cc(OCCN2CCC(O)(c3ccccc3)CC2)c1  174 nM
88. Cc1cccc(CC(=N)NCCCCCCNC(=N)Cc2cccc(C)c2)c1  167 nM
89. NC(CC1CC(=O)N1CC(=O)O)C(=O)O (configuration not stated)  156 nM
90. CC(C)N(CCOc1ccc2c(c1)N(C(=O)Nc1cc(Br)cc(C(F)(F)F)c1)CC2)C(C)C  108 nM
91. O=S(=O)(c1c(Cl)cc(Cl)cc1Cl)N1CCCCC(c2ccc(C(F)(F)F)cc2)=N1  95 nM
92. COc1ccc(C(O)CNC(C)CCc2ccccc2)cc1C(F)(F)F (configuration not stated)  70.4 nM
93. CCNc1cc(C(=O)N[C@@H](Cc2ccccc2)[C@H](O)CN[C@H](C)c2ccccc2)cc(N2CCCC2=O)c1  54.3 nM
94. Cc1nc(C)c(C2CCC(c3ccc(Cl)cc3)CC2)c(O)c1Cl (configuration not stated)  51.8 nM
95. CCn1ccc2c(N3CCCS3(=O)=O)cc(C(=O)N[C@@H](Cc3ccccc3)[C@H](O)CNC(C)(C)c3cccc(OC)c3)cc21  41.6 nM
96. COc1ccc2ccccc2c1CON1C(=N)N=C(N)NC1(C)C  28.8 nM
97. CCc1cccc(OCCCON2C(=N)N=C(N)NC2(C)C)c1  3.2 nM
